Assays:
human STAT6 = assay: Human STAT6 dependent reporter activity (IL-4 stimulated STAT6 reporter assay using STAT6-HEK293 cells); format: cell-based; details: IL-4 stimulation, luciferase activity; for inhibition at 0.1 µM / inhibition at 1 µM: Homo sapiens, read-out: Inhibition rate (%)
human STAT6/pIL-4Rα = target: T1, human STAT6/pIL-4Rα (Homo sapiens, UniProt P42226); assay: Binding inhibitory activity between human STAT6/pIL-4Rα by fluorescence polarization method; details: rhSTAT6 (123-658) / FAM-pIL-4Rα peptide
T1 construct: histidine tag
T1 sequence (P42226 123-658): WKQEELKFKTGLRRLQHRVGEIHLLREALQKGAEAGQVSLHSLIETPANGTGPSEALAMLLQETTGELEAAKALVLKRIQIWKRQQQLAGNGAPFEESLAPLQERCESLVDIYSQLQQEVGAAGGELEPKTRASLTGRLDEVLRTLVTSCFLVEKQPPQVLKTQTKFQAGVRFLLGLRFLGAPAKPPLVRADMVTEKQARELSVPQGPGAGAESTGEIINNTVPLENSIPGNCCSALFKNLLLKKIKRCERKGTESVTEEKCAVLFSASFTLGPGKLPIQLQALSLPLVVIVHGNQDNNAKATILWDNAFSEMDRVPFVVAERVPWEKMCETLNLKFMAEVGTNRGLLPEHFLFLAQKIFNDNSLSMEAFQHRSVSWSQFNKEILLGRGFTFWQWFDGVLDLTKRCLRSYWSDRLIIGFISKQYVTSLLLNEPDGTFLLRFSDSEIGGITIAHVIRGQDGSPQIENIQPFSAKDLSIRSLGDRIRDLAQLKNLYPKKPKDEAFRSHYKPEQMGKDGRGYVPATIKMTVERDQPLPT
Summary of the method: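 His-tagged human STAT6 (residues 123–658, E. coli-expressed) was preincubated with compound for 30 min at RT in the dark, in buffer e.g. 50 mM NaCl, 10 mM HEPES pH 7.0, 1 mM DTT, 1 mM EDTA, 0.01% NP-40. FAM-pIL-4Rα peptide was then added for 30 min. Fluorescence polarisation was read at 485/535 nm, with IC50 interpolated linearly between two points flanking 50%.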

SMILES	IC50 (human STAT6/pIL-4Rα) [nM]	inhibition at 0.1 µM (human STAT6; compound 0.1 μmol/L) [%]	inhibition at 1 µM (human STAT6; compound 1 μmol/L) [%]	Inhibition rate (%) (human STAT6; compound 0.1 μmol/L)	Inhibition rate (%) (human STAT6; compound 1 μmol/L)
CCn1c(-c2ccc(-n3cnn(C)c3=O)cc2)cc2cc(C(F)(F)F)cc(C(=O)Nc3cccc(C(N)=O)c3)c21 [Ex. 35]	350	100			
CCn1c(-c2ccc(-n3c(C)nn(C)c3=O)cc2)cc2cc(C(F)(F)F)cc(C(=O)Nc3cccc(C(N)=O)c3)c21 [Ex. 37]	250	96	100		
CCn1c(-c2ccc(-n3cnn(C)c3=O)cc2)cc2cc(C(F)(F)F)cc(C(=O)Nc3ccc(F)c(C(N)=O)c3)c21 [Ex. 38]	330		100	99	
CCn1c(-c2ccc(-n3c(C)nn(C)c3=O)cc2)cc2cc(C(F)(F)F)cc(C(=O)Nc3ccc(F)c(C(N)=O)c3)c21 [Ex. 39]	1200	84	99		
CCn1c(-c2ccc(-n3c(C)nn(C)c3=O)cc2)cc2cc(C(F)(F)F)cc(C(=O)Nc3cccc(C(=O)NC)c3)c21 [Ex. 40]	290	92	100		
COCCn1c(-c2ccc(-n3cnn(C)c3=O)cc2)cc2cc(C(F)(F)F)cc(C(=O)Nc3ccc(F)c(C(N)=O)c3)c21 [Ex. 41]	280	92	100		
COCCn1c(-c2ccc(-n3cnn(C)c3=O)cc2)cc2cc(C(F)(F)F)cc(C(=O)Nc3cccc(C(N)=O)c3F)c21 [Ex. 42]	260	90	100		
CNC(=O)c1cccc(NC(=O)c2cc(C(F)(F)F)cc3cc(-c4ccc(-n5cnn(C)c5=O)cc4)n(CCOC)c23)c1 [Ex. 43]	250	93	100		
CNC(=O)c1cccc(NC(=O)c2cc(C(F)(F)F)cc3cc(-c4ccc(-n5c(C)nn(C)c5=O)cc4)n(CCOC)c23)c1 [Ex. 44]	170	93	100		
CCn1c(-c2ccc(-n3cnn(C)c3=O)cc2)cc2cc(C(F)(F)F)cc(C(=O)Nc3ccc(F)c(C(N)=O)c3)c21 [Ex. 45]	250			63	100
Cn1ncn(-c2ccc(-c3cc4cc(C(F)(F)F)cc(C(=O)Nc5ccc(F)c(C(N)=O)c5)c4[nH]3)cc2)c1=O [Ex. 46]	450	81	100		
CCn1c(-c2ccc(-n3ncn(C)c3=O)cc2)cc2cc(C(F)(F)F)cc(C(=O)Nc3cccc(C(N)=O)c3F)c21 [Ex. 47]	1000	43	95		
CCn1c(-c2ccc(-n3ncn(C)c3=O)cc2)cc2cc(C(F)(F)F)cc(C(=O)Nc3cccc(C(N)=O)c3)c21 [Ex. 48]	340	84	100		
CCn1c(-c2ccc(-n3c(C)nn(C)c3=O)cc2)cc2c(C(F)(F)F)ccc(C(=O)Nc3cccc(C(N)=O)c3F)c21 [Ex. 49]	310	97	100		
CCn1c(-c2ccc(-n3c(C)nn(C)c3=O)cc2)cc2cc(C#N)cc(C(=O)Nc3ccc(F)c(C(N)=O)c3)c21 [Ex. 50]	560	42	99		
CNC(=O)c1cc(NC(=O)c2cc(C(F)(F)F)cc3cc(-c4ccc(-n5c(C)nn(C)c5=O)cc4)n(CCOC)c23)ccc1F [Ex. 51]	490	13	82		
COCCn1c(-c2ccc(-n3c(C)nn(C)c3=O)cc2)cc2cc(C(F)(F)F)cc(C(=O)Nc3cccc(C#N)c3)c21 [Ex. 52]	190	52	100		
CCn1c(-c2ccc(-n3c(C)nn(C)c3=O)cc2)cc2cc(Cl)cc(C(=O)Nc3ccc(F)c(C(N)=O)c3)c21 [Ex. 56]	270	94	100		
CCn1c(-c2ccc(-n3c(C)nn(C)c3=O)cc2)cc2nccc(C(=O)Nc3ccc(F)c(C(N)=O)c3)c21 [Ex. 57]	490	89	100		
CCn1c(-c2ccc(-n3c(C)nn(C)c3=O)cc2)cc2nccc(C(=O)Nc3cccc(C(N)=O)c3F)c21 [Ex. 59]	390	83	99		
CCn1c(-c2ccc(-n3c(C)nn(C)c3=O)cn2)cc2cc(C(F)(F)F)cc(C(=O)Nc3ccc(F)c(C(N)=O)c3)c21 [Ex. 61]	470	93	100		

The next lines start with results.

IC50 (human STAT6/pIL-4Rα) [nM]	SMILES	inhibition at 0.1 µM (human STAT6; compound 0.1 μmol/L) [%]	inhibition at 1 µM (human STAT6; compound 1 μmol/L) [%]	Inhibition rate (%) (human STAT6; compound 0.1 μmol/L)	Inhibition rate (%) (human STAT6; compound 1 μmol/L)
450	COCCn1c(-c2ccc(-n3c(C)nn(C)c3=O)cc2)cc2cc(C(F)(F)F)cc(C(=O)Nc3ccc4c(c3)C(=O)NCC4)c21 [Ex. 62]	59	99		
440	CCn1c(-c2ccc(-n3cnn(C)c3=O)cn2)cc2cc(C(F)(F)F)cc(C(=O)Nc3cccc(C(N)=O)c3F)c21 [Ex. 65]	50	98		
320	CCn1c(-c2ccc(N3CCOCC3=O)cc2)cc2cc(C(F)(F)F)cc(C(=O)Nc3cccc(C(N)=O)c3F)c21 [Ex. 66]	58	99		
580	Cc1nn(C)c(=O)n1-c1ccc(-c2cc3cc(C(F)(F)F)cc(C(=O)Nc4ccc(F)c(C(N)=O)c4)c3n2CC2CC2)cc1 [Ex. 67]	56	96		
350	CCn1c(-c2ccc(-n3c(C)nn(C)c3=O)cc2)cc2c(Cl)ccc(C(=O)Nc3ccc(F)c(C(N)=O)c3)c21 [Ex. 68]	59	100		
290	COCCn1c(-c2ccc(-n3c(C)nn(C)c3=O)cc2)cc2cc(C(F)(F)F)cc(C(=O)Nc3ccccn3)c21 [Ex. 69]	61	100		
760	COCCn1c(-c2ccc(-n3c(C)nn(C)c3=O)cc2)cc2cc(C(F)(F)F)cc(C(=O)Nc3cccnc3OC)c21 [Ex. 70]	-6	45		
340	CCn1c(-c2ccc(-n3c(C)nn(C)c3=O)cc2F)cc2cc(C(F)(F)F)cc(C(=O)Nc3ccc(F)c(C(N)=O)c3)c21 [Ex. 72]	65	97		
370	COCCn1c(-c2ccc(-n3c(C)nn(C)c3=O)cc2)cc2cc(C(F)(F)F)cc(C(=O)Nc3ccc(C)nc3)c21 [Ex. 73]	72	100		
480	CCn1c(-c2ccc(-n3c(C)nn(C)c3=O)cc2)cc2nc(C(F)(F)F)cc(C(=O)Nc3ccc(F)c(C(N)=O)c3)c21 [Ex. 74]	21	91		
360	CCn1c(-c2ccc(-n3c(C)nn(C)c3=O)cc2)cc2nc(C(F)(F)F)cc(C(=O)Nc3cccc(C(N)=O)c3F)c21 [Ex. 75]	36	93		
360	CCn1c(-c2ccc(-n3c(C)nn(C)c3=O)cc2)cc2c(F)ccc(C(=O)Nc3ccc(F)c(C(N)=O)c3)c21 [Ex. 76]	31	94		
590	CCn1c(-c2ccc(-n3c(C)nn(C)c3=O)cc2)cc2c(F)ccc(C(=O)Nc3cccc(C(N)=O)c3F)c21 [Ex. 77]	73	99		
340	COCCn1c(-c2ccc(-n3c(C)nn(C)c3=O)cc2)cc2cc(C(F)(F)F)cc(C(=O)Nc3cccc(OC)n3)c21 [Ex. 78]	89	100		
400	COCCn1c(-c2ccc(-n3c(C)nn(C)c3=O)cc2)cc2cc(C(F)(F)F)cc(C(=O)Nc3ccnn3C)c21 [Ex. 80]	4	61		
370	CCn1c(-c2ccc(-n3c(C)nn(C)c3=O)cc2)cc2cc(C(F)(F)F)nc(C(=O)Nc3cccc(C(N)=O)c3F)c21 [Ex. 83]	68	98		
240	COCCn1c(-c2ccc(-n3c(C)nn(C)c3=O)cc2)cc2cc(C(F)(F)F)cc(C(=O)Nc3nnc(C)s3)c21 [Ex. 84]	93	100		
340	COCCn1c(-c2ccc(-n3c(C)nn(C)c3=O)cc2)cc2cc(C(F)(F)F)cc(C(=O)Nc3nccs3)c21 [Ex. 85]	11	73		
420	COCCn1c(-c2ccc(-n3c(C)nn(C)c3=O)cc2)cc2cc(C(F)(F)F)cc(C(=O)Nc3ccnnc3)c21 [Ex. 88]	9	76		
280	COCCn1c(-c2ccc(-n3c(C)nn(C)c3=O)cc2)cc2cc(C(F)(F)F)nc(C(=O)Nc3ccc(F)c(C(N)=O)c3)c21 [Ex. 90]	63	99		

— patent US20260092054A1, “FUSED RING COMPOUND AND PHARMACEUTICAL CONTAINING SAME” (KAKEN PHARMACEUTICAL CO., LTD., priority 2022, published 2026)
